{"source": "paper PMC7766220", "about": "“Design, Synthesis and Comprehensive Investigations of Pyrrolo[3,4-d]pyridazinone-Based 1,3,4-Oxadiazole as New Class of Selective COX-2 Inhibitors” (International Journal of Molecular Sciences, 2020)", "key": {"[1]": {"target": "T1, Bovine Serum Albumin (BSA) (Bos taurus, UniProt P02769)", "T1 construct": "gene ALB", "T1 sequence (P02769 25-607)": "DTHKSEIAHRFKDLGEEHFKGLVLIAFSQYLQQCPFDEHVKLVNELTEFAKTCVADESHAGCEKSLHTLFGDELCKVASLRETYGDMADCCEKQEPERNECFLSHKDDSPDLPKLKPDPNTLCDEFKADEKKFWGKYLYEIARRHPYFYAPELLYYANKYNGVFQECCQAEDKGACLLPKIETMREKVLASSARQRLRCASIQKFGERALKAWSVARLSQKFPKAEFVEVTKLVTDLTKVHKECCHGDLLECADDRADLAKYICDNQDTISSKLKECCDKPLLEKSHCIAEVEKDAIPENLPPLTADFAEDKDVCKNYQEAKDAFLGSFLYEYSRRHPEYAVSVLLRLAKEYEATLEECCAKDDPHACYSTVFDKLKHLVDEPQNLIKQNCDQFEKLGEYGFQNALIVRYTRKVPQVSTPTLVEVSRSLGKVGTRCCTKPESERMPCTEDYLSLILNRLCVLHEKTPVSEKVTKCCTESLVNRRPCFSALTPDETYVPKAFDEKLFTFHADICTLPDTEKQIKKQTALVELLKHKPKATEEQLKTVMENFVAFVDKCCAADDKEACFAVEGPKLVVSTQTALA", "test": "intrinsic fluorescence quenching, excitation […] nm", "assay_type": "binding", "conditions": "294 K, pH 7.4, no site marker, double-log"}, "COX-2": {"target": "T2, COX-2 (Homo sapiens, UniProt P35354)", "T2 construct": "gene PTGS2; docking used 4M11", "T2 sequence (P35354 18-604)": "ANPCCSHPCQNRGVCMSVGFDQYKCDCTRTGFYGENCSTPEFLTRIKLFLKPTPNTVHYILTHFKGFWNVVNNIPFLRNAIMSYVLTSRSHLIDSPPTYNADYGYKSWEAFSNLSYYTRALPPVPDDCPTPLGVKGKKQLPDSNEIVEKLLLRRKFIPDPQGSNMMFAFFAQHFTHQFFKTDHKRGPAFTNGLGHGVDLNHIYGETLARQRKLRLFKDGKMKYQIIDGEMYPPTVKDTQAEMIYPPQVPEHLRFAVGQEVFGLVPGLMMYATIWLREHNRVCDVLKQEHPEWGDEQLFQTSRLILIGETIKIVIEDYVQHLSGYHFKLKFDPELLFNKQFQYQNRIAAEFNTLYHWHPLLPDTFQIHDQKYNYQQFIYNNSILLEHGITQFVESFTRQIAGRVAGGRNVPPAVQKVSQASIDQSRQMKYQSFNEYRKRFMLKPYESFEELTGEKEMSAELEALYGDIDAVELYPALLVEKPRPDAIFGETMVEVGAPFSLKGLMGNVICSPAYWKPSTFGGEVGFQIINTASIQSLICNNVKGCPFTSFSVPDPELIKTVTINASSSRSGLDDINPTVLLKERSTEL", "test": "colorimetric COX peroxidase assay, […] nm (Cayman […])", "assay_type": "biochemical", "conditions": "read-out: Cyclooxygenase Inhibition Assay IC50 [μM] / COX-2"}, "[2]": {"conditions": "unreliable (Table 5 rows of 5a and 5b are identical, likely a copying error)"}}}
{"smiles": "Cc1c2c(OCc3nnc(SCC(=O)N4CCN(c5ccccc5)CC4)o3)nn(C)c(=O)c2c(C)n1-c1ccccc1", "note": "[5a, 3,5,7-trimethyl-1-[[2-[2-oxo-2-(4-phenylpiperazin-1-yl)ethyl]sulfanyl-1,3,4-oxadiazol-5-yl]methoxy]-6-phenyl-pyrrolo[3,4-d]pyridazin-4-one]", "values": [{"measurement": "Binding / Kb × 10^4 [dm^3.mol^-1]", "setting": "[1]; [2]", "value": "12.30 × 10^4 dm^3·mol^−1"}, {"measurement": "IC50", "setting": "COX-2", "value": 659, "unit": "µM"}]}
{"smiles": "CCCCn1c(C)c2c(OCc3nnc(SCC(=O)N4CCN(c5ccccc5)CC4)o3)nn(C)c(=O)c2c1C", "note": "[5b, 6-butyl-3,5,7-trimethyl-1-[[2-[2-oxo-2-(4-phenylpiperazin-1-yl)ethyl]sulfanyl-1,3,4-oxadiazol-5-yl]methoxy]pyrrolo[3,4-d]pyridazin-4-one]", "values": [{"measurement": "Binding / Kb × 10^4 [dm^3.mol^-1]", "setting": "[1]; [2]", "value": "12.30 × 10^4 dm^3·mol^−1"}, {"measurement": "IC50", "setting": "COX-2", "value": 257, "unit": "µM"}]}
{"smiles": "Cc1c2c(OCc3nnc(SCC(=O)N4CCN(c5ncccn5)CC4)o3)nn(C)c(=O)c2c(C)n1-c1ccccc1", "note": "[6a, 3,5,7-trimethyl-1-[[2-[2-oxo-2-(4-pyrimidin-2-ylpiperazin-1-yl)ethyl]sulfanyl-1,3,4-oxadiazol-5-yl]methoxy]-6-phenyl-pyrrolo[3,4-d]pyridazin-4-one]", "values": [{"measurement": "Binding / Kb × 10^4 [dm^3.mol^-1]", "setting": "[1]", "value": "7.24 × 10^4 dm^3·mol^−1"}, {"measurement": "IC50", "setting": "COX-2", "value": 160, "unit": "µM"}]}
{"smiles": "CCCCn1c(C)c2c(OCc3nnc(SCC(=O)N4CCN(c5ncccn5)CC4)o3)nn(C)c(=O)c2c1C", "note": "[6b, 6-butyl-3,5,7-trimethyl-1-[[2-[2-oxo-2-(4-pyrimidin-2-ylpiperazin-1-yl)ethyl]sulfanyl-1,3,4-oxadiazol-5-yl]methoxy]pyrrolo[3,4-d]pyridazin-4-one]", "values": [{"measurement": "Binding / Kb × 10^4 [dm^3.mol^-1]", "setting": "[1]", "value": "8.51 × 10^4 dm^3·mol^−1"}, {"measurement": "IC50", "setting": "COX-2", "value": 371, "unit": "µM"}]}
